From publication PMC10233829 (ACS Omega, 2023)
In brackets after ≈: the same amount, converted by molar mass.

Key:
S. aureus NCTC 4163 = assay: MIC, twofold microdilution, standard strain; format: cell-based; settings: Staphylococcus aureus, NCTC4163, 18 h
S. aureus ATCC 25923 = assay: MIC, twofold microdilution, standard strain; format: cell-based; settings: Staphylococcus aureus, ATCC25923, 18 h
S. aureus ATCC 6538 = assay: MIC, twofold microdilution, standard strain; format: cell-based, Staphylococcus aureus; settings: for MIC: Staphylococcus aureus, ATCC6538, standard strain, 18 h; for MIC used in biofilm eradication assay, S. aureus 6538: Table S1, MIC
S. aureus ATCC 29213 = assay: MIC, twofold microdilution, standard strain; format: cell-based; settings: Staphylococcus aureus, ATCC29213, 18 h
[1] = system: S. epidermidis ATCC 12228; assay: MIC, twofold microdilution, standard strain; format: cell-based; settings: Staphylococcus epidermidis, ATCC12228, 18 h
[2] = system: S. epidermidis ATCC 35984; assay: MIC, twofold microdilution, standard strain; format: cell-based; settings: Staphylococcus epidermidis, ATCC35984, 18 h
P. aeruginosa ATCC 15442 = assay: MIC, twofold microdilution, standard strain; format: cell-based, Pseudomonas aeruginosa; settings: for MIC: Pseudomonas aeruginosa, ATCC15442, standard strain, 18 h; for MIC used in biofilm eradication assay, P. aeruginosa 15442: Table S1, MIC
E. coli ATCC 25922 = assay: MIC, twofold microdilution, standard strain; format: cell-based, Escherichia coli; settings: for MIC: Escherichia coli, ATCC25922, standard strain, 18 h; for MIC used in biofilm eradication assay, E. coli ATCC 25922: Table S1, MIC
S. aureus 180 = assay: MIC, twofold microdilution, clinical strain; format: cell-based; settings: Staphylococcus aureus, 18 h
S. aureus 5595 = assay: MIC, twofold microdilution, clinical strain; format: cell-based; settings: Staphylococcus aureus, 18 h
S. aureus T5595 = assay: MIC, twofold microdilution, clinical strain; format: cell-based, Staphylococcus aureus; settings: Staphylococcus aureus, T5595, 18 h
S. aureus T5591 = assay: MIC, twofold microdilution, clinical strain; format: cell-based, Staphylococcus aureus; settings: Staphylococcus aureus, T5591, 18 h
S. epidermidis 4341 = assay: MIC, twofold microdilution, clinical strain; format: cell-based; settings: Staphylococcus epidermidis, 18 h
S. epidermidis 5253 = assay: MIC, twofold microdilution, clinical strain; format: cell-based, Staphylococcus epidermidis; settings: Staphylococcus epidermidis, 5253, 18 h
S. epidermidis KR4243/1 = assay: MIC, twofold microdilution, clinical strain; format: cell-based; settings: Staphylococcus epidermidis, 18 h
S. pasteuri KR 4358 = assay: MIC, twofold microdilution, clinical strain; format: cell-based; settings: Staphylococcus pasteuri, KR4358, 18 h
P. aeruginosa 37 = assay: MIC, twofold microdilution, clinical strain; format: cell-based; settings: Pseudomonas aeruginosa, 18 h
P. aeruginosa 659 = assay: MIC, twofold microdilution, clinical strain; format: cell-based; settings: Pseudomonas aeruginosa, 18 h
E. coli 951 = assay: MIC, twofold microdilution, clinical strain; format: cell-based; settings: Escherichia coli, 18 h
E. coli 520 = assay: MIC, twofold microdilution, clinical strain; format: cell-based; settings: Escherichia coli, 18 h
E. coli 600 = assay: MIC, twofold microdilution, clinical strain; format: cell-based, Escherichia coli; settings: Escherichia coli, 600, 18 h
E. cloacae 8 = assay: MIC, twofold microdilution, clinical strain; format: cell-based, Escherichia cloacae; settings: Enterobacter cloacae, 8; clinical strain, 18 h
K. pneumoniae 28 = assay: MIC, twofold microdilution, clinical strain; format: cell-based; settings: Klebsiella pneumoniae, 18 h
K. pneumoniae 510 = assay: MIC, twofold microdilution, clinical strain; format: cell-based, Klebsiella pneumoniae; settings: for share of the reference (CP) activity: Klebsiella pneumoniae rods; for MIC: Klebsiella pneumoniae, 510, clinical strain, 18 h
M. tuberculosis H37Rv = assay: Tuberculostatic activity, Microplate Alamar Blue Assay (MIC); format: cell-based, Mycobacterium tuberculosis; settings: Mycobacterium tuberculosis, H37RV; MABA; read-out: MIC M. tuberculosis H37Rv
[3] = system: M. tuberculosis Spec. 192; assay: as above; format: cell-based; settings: Mycobacterium tuberculosis, MABA, read-out: MIC M. tuberculosis Spec. 192 (sensitive to tuberculostatics)
PC3 cells = assay: MTT assay, cytotoxic activity; format: cell-based, human; settings: Homo sapiens, PC-3, 72 h, MTT, 72 h
How it was run: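 PC3 cells were grown at 37 °C/5% CO2 and exposed to test compounds. Viability came from MTT reduction, as test absorbance over untreated-control absorbance × 100%.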

[4] = MTT assay, cytotoxic activity; format: cell-based; settings: human, HaCaT cells (immortal keratinocytes); MTT, 72 h, normal cell line; read-out: IC50 HaCaT
How it was run: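 MTT assay on cells grown at 37 °C/5% CO2. Viability is expressed as relative MTT reduction: test absorbance divided by untreated-control absorbance, ×100%.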

[5] = system: clinical bacterial strains; assay: MIC, clinical isolates as groups of strains; format: cell-based

Structure (SMILES): O=C(O)c1cn(C2CC2)c2cc(N3CCN(C(=O)CCCCl)CC3)c(F)cc2c1=O [Compound 5, 7-[4-(4-Chlorobutyryl)-piperazin-1-yl]-1-cyclopropyl-6-fluoro-4-oxo-1,4-dihydro-quinoline-3-carboxylic Acid]
- MIC (S. aureus NCTC 4163): 0.2 µg/mL (≈ 0.459 µM)
- MIC (S. aureus ATCC 25923): 0.8 µg/mL (≈ 1.84 µM)
- MIC (S. aureus ATCC 6538): 0.2 µg/mL (≈ 0.459 µM)
- MIC used in biofilm eradication assay, S. aureus 6538 (S. aureus ATCC 6538): 0.200 µg/mL (≈ 0.459 µM)
- MIC (S. aureus ATCC 29213): 0.4 µg/mL (≈ 0.918 µM)
- MIC [1]: 0.4 µg/mL (≈ 0.918 µM)
- MIC [2]: 0.2 µg/mL (≈ 0.459 µM)
- MIC (P. aeruginosa ATCC 15442): 0.2 µg/mL (≈ 0.459 µM)
- MIC used in biofilm eradication assay, P. aeruginosa 15442 (P. aeruginosa ATCC 15442): 0.200 µg/mL (≈ 0.459 µM)
- MIC (E. coli ATCC 25922): 0.025 µg/mL (≈ 0.0574 µM)
- MIC used in biofilm eradication assay, E. coli ATCC 25922 (E. coli ATCC 25922): 0.025 µg/mL (≈ 0.0574 µM)
- MIC (S. aureus 180): 0.4 µg/mL (≈ 0.918 µM)
- MIC (S. aureus 5595): 0.4 µg/mL (≈ 0.918 µM)
- MIC (S. aureus T5595): 0.4 µg/mL (≈ 0.918 µM)
- MIC (S. aureus T5591): 0.4 µg/mL (≈ 0.918 µM)
- MIC (S. epidermidis 4341): 12.8 µg/mL (≈ 29.4 µM)
- MIC (S. epidermidis 5253): > 25.6 µg/mL
- MIC (S. epidermidis KR4243/1): 0.2 µg/mL (≈ 0.459 µM)
- MIC (S. pasteuri KR 4358): 0.2 µg/mL (≈ 0.459 µM)
- MIC (P. aeruginosa 37): 0.8 µg/mL (≈ 1.84 µM)
- MIC (P. aeruginosa 659): 0.8 µg/mL (≈ 1.84 µM)
- MIC (E. coli 951): 0.8 µg/mL (≈ 1.84 µM)
- MIC (E. coli 520): 0.025 µg/mL (≈ 0.0574 µM)
- MIC (E. coli 600): 0.025 µg/mL (≈ 0.0574 µM)
- MIC (E. cloacae 8): 0.05 µg/mL (≈ 0.115 µM)
- MIC (K. pneumoniae 28): > 25.6 µg/mL
- share of the reference (CP) activity (K. pneumoniae 510): 62.5%
- MIC (K. pneumoniae 510): 6.4 µg/mL (≈ 14.7 µM)
- MIC (M. tuberculosis H37Rv): 0.5 µg/mL (≈ 1.15 µM)
- MIC [3]: 0.5 µg/mL (≈ 1.15 µM)
- IC50 (PC3 cells): 97.2 ± 11 µM
- IC50 at 72 h [4]: > 100 µM
- share of the reference (CP) activity ([5]; S. aureus T5595 and T5591): 62.5%

Structure (SMILES): O=C(O)c1cn(C2CC2)c2cc(N3CCN(C(=O)CCCCBr)CC3)c(F)cc2c1=O [Compound 11, 7-[4-(5-Bromopentanoyl)-piperazin-1-yl]-1-cyclopropyl-6-fluoro-4-oxo-1,4-dihydro-quinoline-3-carboxylic Acid]
- MIC (S. aureus NCTC 4163): 0.1 µg/mL (≈ 0.202 µM)
- MIC (S. aureus ATCC 25923): 0.4 µg/mL (≈ 0.809 µM)
- MIC (S. aureus ATCC 6538): 0.1 µg/mL (≈ 0.202 µM)
- MIC used in biofilm eradication assay, S. aureus 6538 (S. aureus ATCC 6538): 0.100 µg/mL (≈ 0.202 µM)
- MIC (S. aureus ATCC 29213): 0.2 µg/mL (≈ 0.405 µM)
- MIC [1]: 0.1 µg/mL (≈ 0.202 µM)
- MIC [2]: 0.1 µg/mL (≈ 0.202 µM)
- MIC (P. aeruginosa ATCC 15442): 0.1 µg/mL (≈ 0.202 µM)
- MIC used in biofilm eradication assay, P. aeruginosa 15442 (P. aeruginosa ATCC 15442): 0.100 µg/mL (≈ 0.202 µM)
- MIC (E. coli ATCC 25922): 0.025 µg/mL (≈ 0.0506 µM)
- MIC used in biofilm eradication assay, E. coli ATCC 25922 (E. coli ATCC 25922): 0.025 µg/mL (≈ 0.0506 µM)
- MIC (S. aureus 180): 0.8 µg/mL (≈ 1.62 µM)
- MIC (S. aureus 5595): 0.8 µg/mL (≈ 1.62 µM)
- MIC (S. aureus T5595): 0.8 µg/mL (≈ 1.62 µM)
- MIC (S. aureus T5591): 0.8 µg/mL (≈ 1.62 µM)
- MIC (S. epidermidis 4341): 25.6 µg/mL (≈ 51.8 µM)
- MIC (S. epidermidis 5253): > 25.6 µg/mL
- MIC (S. epidermidis KR4243/1): 0.4 µg/mL (≈ 0.809 µM)
- MIC (S. pasteuri KR 4358): 0.2 µg/mL (≈ 0.405 µM)
- MIC (P. aeruginosa 37): 0.8 µg/mL (≈ 1.62 µM)
- MIC (P. aeruginosa 659): 0.8 µg/mL (≈ 1.62 µM)
- MIC (E. coli 951): 0.4 µg/mL (≈ 0.809 µM)
- MIC (E. coli 520): 0.1 µg/mL (≈ 0.202 µM)
- MIC (E. coli 600): 0.05 µg/mL (≈ 0.101 µM)
- MIC (E. cloacae 8): 0.05 µg/mL (≈ 0.101 µM)
- MIC (K. pneumoniae 28): > 25.6 µg/mL
- share of the reference (CP) activity (K. pneumoniae 510): 62.5%
- MIC (K. pneumoniae 510): 6.4 µg/mL (≈ 12.9 µM)
- MIC (M. tuberculosis H37Rv): 0.5 µg/mL (≈ 1.01 µM)
- MIC [3]: 0.5 µg/mL (≈ 1.01 µM)
- IC50 (PC3 cells): 81.7 ± 8.9 µM
- IC50 at 72 h [4]: 80.1 ± 8.1 µM
- share of CP inhibitory activity ([5]; S. aureus 180 and 5595): 62.5%
